# Where “and” joins values, the source holds several entries; their conditions need not be identical. Equal entries are not always repeated. Calls of active or inactive are those of the source.
# Tests used:
# [1] = molecular target: Cytochrome P450 2C19 (Homo sapiens, UniProt P33261); assay: Cytochrome panel assay with activity outcomes. Panel member name: p450-cyp2c19 Compounds with AC50 equal or less than 10 uM are considered active; assay type: functional
# [2] = molecular target: Cytochrome P450 3A4 (Homo sapiens, UniProt P08684);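 note: CYP3A4 tested as one member of a cytochrome P450 panel screen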
# [3] = molecular target: Cytochrome P450 2C9 (Homo sapiens, UniProt P11712)
# [4] = molecular target: T1, Cytochrome P450 1A2 (Homo sapiens, UniProt P05177)
# T1 sequence (P05177 whole entry): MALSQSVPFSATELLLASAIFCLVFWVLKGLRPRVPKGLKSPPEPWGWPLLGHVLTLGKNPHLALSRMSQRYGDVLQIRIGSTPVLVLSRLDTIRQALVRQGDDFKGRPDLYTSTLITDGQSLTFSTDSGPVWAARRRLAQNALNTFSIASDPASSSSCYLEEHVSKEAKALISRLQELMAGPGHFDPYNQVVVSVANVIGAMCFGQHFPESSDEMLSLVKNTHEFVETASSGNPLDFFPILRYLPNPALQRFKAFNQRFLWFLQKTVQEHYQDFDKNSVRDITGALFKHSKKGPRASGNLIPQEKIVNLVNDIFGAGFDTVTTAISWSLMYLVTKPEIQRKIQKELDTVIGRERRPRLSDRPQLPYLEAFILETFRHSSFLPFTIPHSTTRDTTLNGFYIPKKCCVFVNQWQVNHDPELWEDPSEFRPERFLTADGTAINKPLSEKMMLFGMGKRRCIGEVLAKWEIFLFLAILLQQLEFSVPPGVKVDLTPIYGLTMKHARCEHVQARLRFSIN
# [5] = test system: Streptococcus sp. 'group A'; assay: growth inhibition of control SK(-) GAS strain, dose response, counter-screen for streptokinase expression inhibitor project, luminescence, kanamycin, BacTiterGlo, confirmation (AID 1900); assay type: functional, organism-based
# [6] = test system: Streptococcus; assay: Group A Streptococcus viability loss, dose response, counter-screen for streptokinase expression inhibitor project, luminescence, BacTiterGlo (AID 1915); assay type: functional, organism-based;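 note: potency for reduction of bacterial viability or growth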
# [7] = Luminescence Cell-Based Dose Retest to Confirm Inhibitors of Cancer Stem Cells. [Related pubchem assays (depositor defined):AID2717, AID2721]; assay type: functional; conditions: Homo sapiens
# [8] = inhibitors of intracellular T. cruzi replication, confirmation, NIH3T3 host cells, beta-gal luminescence (AID 2044); assay type: functional, cell-based;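 note: intracellular parasites grown in NIH/3T3 mouse fibroblasts as host cells; luminescent beta-galactosidase reporter signal from transgenic T. cruzi replicating inside host cells; inhibitors lower the luminescence signal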
# [9] = cytotoxicity toward NIH3T3 fibroblasts, dose response, counter-screen, cell-based, ATP luminescence, mouse fibroblasts (AID 2010); assay type: functional;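 note: cells exposed to compound for about 90 hours before reading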
# Cytochrome P450 2C19, sequence (P33261 whole entry): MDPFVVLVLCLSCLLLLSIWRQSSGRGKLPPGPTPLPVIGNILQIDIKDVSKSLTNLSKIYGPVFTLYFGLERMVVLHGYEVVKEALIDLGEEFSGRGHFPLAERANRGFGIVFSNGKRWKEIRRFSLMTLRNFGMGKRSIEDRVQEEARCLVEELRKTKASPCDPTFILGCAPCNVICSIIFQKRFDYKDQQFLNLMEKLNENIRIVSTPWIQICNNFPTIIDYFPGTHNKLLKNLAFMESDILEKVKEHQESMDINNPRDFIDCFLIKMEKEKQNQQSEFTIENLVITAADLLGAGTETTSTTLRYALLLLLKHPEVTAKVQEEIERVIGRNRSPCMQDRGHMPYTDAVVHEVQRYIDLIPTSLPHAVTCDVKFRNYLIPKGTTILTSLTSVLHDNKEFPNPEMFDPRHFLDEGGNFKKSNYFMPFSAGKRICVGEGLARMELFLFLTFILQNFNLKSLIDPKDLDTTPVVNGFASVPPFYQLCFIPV
# Cytochrome P450 3A4, sequence (P08684 whole entry): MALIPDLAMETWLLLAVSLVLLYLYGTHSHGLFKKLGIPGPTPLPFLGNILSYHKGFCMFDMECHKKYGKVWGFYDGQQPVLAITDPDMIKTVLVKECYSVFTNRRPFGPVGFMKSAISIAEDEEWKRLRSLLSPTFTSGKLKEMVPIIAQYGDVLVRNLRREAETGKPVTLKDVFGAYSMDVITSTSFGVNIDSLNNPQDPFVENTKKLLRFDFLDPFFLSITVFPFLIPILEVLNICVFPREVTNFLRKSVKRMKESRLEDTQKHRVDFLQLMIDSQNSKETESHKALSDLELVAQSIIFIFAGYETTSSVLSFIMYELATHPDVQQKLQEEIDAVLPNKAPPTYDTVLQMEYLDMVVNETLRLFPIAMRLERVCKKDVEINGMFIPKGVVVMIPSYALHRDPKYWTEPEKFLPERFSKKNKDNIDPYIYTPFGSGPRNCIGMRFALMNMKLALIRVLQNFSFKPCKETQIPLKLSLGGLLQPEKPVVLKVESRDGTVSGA
# Cytochrome P450 2C9, sequence (P11712 whole entry): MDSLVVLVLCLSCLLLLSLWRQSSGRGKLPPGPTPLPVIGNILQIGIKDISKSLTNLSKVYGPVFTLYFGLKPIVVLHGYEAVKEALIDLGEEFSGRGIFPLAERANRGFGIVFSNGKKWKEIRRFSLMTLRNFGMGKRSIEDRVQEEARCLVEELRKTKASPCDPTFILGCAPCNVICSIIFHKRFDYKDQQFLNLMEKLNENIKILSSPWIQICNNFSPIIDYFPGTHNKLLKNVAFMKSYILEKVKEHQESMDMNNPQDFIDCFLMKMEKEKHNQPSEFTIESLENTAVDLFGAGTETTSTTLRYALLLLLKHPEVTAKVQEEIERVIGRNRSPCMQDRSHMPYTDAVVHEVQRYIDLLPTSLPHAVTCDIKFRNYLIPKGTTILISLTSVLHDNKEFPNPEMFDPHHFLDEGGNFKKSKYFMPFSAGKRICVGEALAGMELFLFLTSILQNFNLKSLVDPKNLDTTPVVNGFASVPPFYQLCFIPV
smiles,measurement,setting,value
COC(=O)c1c(-c2cc(OC)c(OC)c(OC)c2)c2ccc(OCc3ccccn3)cc2c(=O)n1-c1ccc(N)cc1,AC50,[1]; read-out: AC50,10 µM (inconclusive)
Fc1ccc(CSc2nnc(-c3cc4c(s3)-c3ccccc3CC4)o2)cc1,AC50,[1],inconclusive
same,AC50,[2],15.8 µM (inconclusive)
Cc1nonc1NCn1nnc2ccccc21,AC50,[1]; read-out: AC50,14.1 µM (inconclusive)
same,AC50,[3],5.01 µM (inconclusive)
same,AC50,[4],8.91 µM (inconclusive)
CCc1c(C2(O)CCCCC2)[nH]c2c(C(=O)OC)cc(Cl)cc12,EC50,[5],2.62 µM (active)
same,EC50,[6],5.96 µM (active)
same,AC50,[7],1.89 µM (active)
COC(=O)CSc1ccc(C#N)c(SCC(=O)OC)c1,AC50,[3],20 µM (inconclusive)
Cc1cc(C)c(S(=O)(=O)NCC2CCC(C(=O)NCc3ccc4c(c3)OCO4)CC2)c(C)c1 (stereo unspecified),AC50,[4],17.8 µM (inconclusive)
O=C(NCC1CCCC(CNC(=O)Nc2ccc(Cl)cn2)C1)Nc1ccc(Cl)cn1 (stereo unspecified),EC50,[8],1.18 µM (active)
same,EC50,[9],> 60 µM (not active)
CN(C)CCCN(C(=O)/C=C/c1cccs1)c1nc2c(F)cccc2s1,EC50,[8],1.86 µM (active)
same,EC50,[9],> 60 µM (not active)
O=C(CCN1C(=O)C2C3C=CC(C3)C2C1=O)Nc1c(F)cccc1F (stereo unspecified),AC50,[1]; read-out: AC50,39.8 µM (inconclusive)
COc1cccc(Nc2nc(N)nc(CCl)n2)c1,EC50,[8],1.7 µM (active)
same,EC50,[9],4.11 µM (active)
CC12CN3CC(C)(CN(C1)C3c1ccc([N+](=O)[O-])o1)C2=O (stereo unspecified),EC50,[8],0.784 µM (active)
same,EC50,[9],> 60 µM (not active)
Cc1nn(C(=O)c2ccco2)c(C)c1Sc1ccccc1,AC50,[3],2.24 µM (inconclusive)
same,AC50,[2],39.8 µM (inconclusive)
CO[C@@H]1COC(=O)C/C=C\[C@@H](C)[C@H](OC)COC(=O)[C@H](COCc2ccccc2)NC(=O)C/C=C\[C@H]1C,AC50,[1]; read-out: AC50,2 µM (inconclusive)
same,AC50,[2],5.01 µM (inconclusive)
O=C(NC1CCN(Cc2ccccc2)CC1)c1ccc(Cn2c(=S)[nH]c3ccc(N4CCOCC4)cc3c2=O)cc1,EC50,[8],1.3 µM (active)
same,EC50,[9],10.4 µM (active)
N#Cc1cccc(-c2ccc3ncnc(NC4CCNCC4)c3c2)c1,AC50,[1]; read-out: AC50,25.1 µM (inconclusive)
O=C(CCN1CCc2ccccc2C1)Nc1ccc(F)cc1,AC50,[2],15.8 µM (inconclusive)
same,AC50,[4],0.398 µM (inconclusive)
CN1CCN(c2ncncc2-c2ccccc2Cl)CC1,AC50,[4],2.51 µM (inconclusive)
CC(=O)Nc1ccc(OCC(O)Cn2c3ccccc3c3ccccc32)c(C)c1 (stereo unspecified),EC50,[8],2.11 µM (active)
same,EC50,[9],9.57 µM (active)
Cc1c(-c2cccc(Cl)c2)nc2ccccc2c1C(=O)OC/C(O)=C(\C#N)c1nc2ccccc2[nH]1,EC50,[5],2.23 µM (active)
same,EC50,[6],2.6 µM (active)
same,AC50,[7],1.75 µM (active)
c1ccc(CNc2ncncc2-c2ccoc2)cc1,AC50,[3],0.501 µM (inconclusive)
COc1ccccc1CN1CCCC2(CCN(C(=O)c3cccn3C)CC2)C1,AC50,[2],20 µM (inconclusive)
O=C(c1ccc(C#CC2(O)CCCCC2)cc1)N1CCN(C(c2ccccc2)c2ccccc2)CC1,AC50,[7],0.482 µM (active)
CN1C(=O)C(C2c3ccccc3C(=O)N2Cc2ccc([N+](=O)[O-])cc2)C(=O)N(C)C1=O (stereo unspecified),AC50,[1]; read-out: AC50,14.1 µM (inconclusive)
CCOCCCNCc1ccc(OCCC(C)C)c(OC)c1,EC50,[8],0.17 µM (active)
same,EC50,[9],> 60 µM (not active)
CN1CCN(c2nc(-c3ccoc3)nc3ccccc23)CC1,AC50,[2],20 µM (inconclusive)
C=CCNc1nc(Cl)nc(Nc2ccc(OC)cc2)n1,AC50,[1]; read-out: AC50,0.224 µM (inconclusive)
COc1ccccc1N1CCN(C[C@@H](O)COc2cccc3ccccc23)CC1,AC50,[4],12.6 µM (inconclusive) and 31.6 µM (inconclusive) and 20 µM (inconclusive)
CN(C)CCCN(C(=O)COc1ccc(Cl)cc1)c1nc2c(F)cccc2s1,EC50,[8],0.128 µM (active)
same,EC50,[9],> 60 µM (inconclusive)
N#CCCn1c(=O)cnc2cnc(OCc3ccccc3)nc21,AC50,[1],inconclusive
COc1cccc(Cn2c(=O)c(-c3ccccc3)nc3cnc(N4CCN(C)CC4)nc32)c1,AC50,[2],31.6 µM (inconclusive)
Cc1ccc(CNC(=O)[C@H]2C[C@@H]2[C@H](NP(=O)(c2ccccc2)c2ccccc2)c2ccccc2)c(F)c1F,AC50,[1]; read-out: AC50,0.0398 µM (inconclusive)
O=c1c(-c2cc(F)cc(F)c2)nc2cncnc2n1-c1ccccc1,AC50,[1]; read-out: AC50,6.31 µM (inconclusive)
same,AC50,[3],10 µM (inconclusive)
CCN1CCN(c2ccc(S(=O)(=O)N3CCCCC3)cc2NC(=O)c2cc3ccccc3o2)CC1,EC50,[8],0.31 µM (active)
same,EC50,[9],> 30 µM (not active)
Cc1cccc(-n2cc(CN(C)Cc3nccn3C)c(-c3cccc(F)c3)n2)c1,AC50,[7],13.5 µM (active)
same,EC50,[8],1.79 µM (active)
same,EC50,[9],11.8 µM (active)
CC1(C)CCCN(C(=O)N2c3ccccc3Sc3ccccc32)C1,AC50,[3],15.8 µM (inconclusive)
CCOc1nc(NC(C)C)nc(NC(C)C)n1,AC50,[4],5.01 µM (inconclusive)
CCn1c(-c2ccccc2)cnc1S,EC50,[5],> 150 µM (not active)
same,EC50,[6],> 150 µM (not active)
CCCc1[nH]c2ccc(C#N)cc2c1CCC,AC50,[7],4.21 µM (active)
COc1ccccc1-c1nc(N2CCN(C)CC2)c2ccccc2n1,AC50,[2],31.6 µM (inconclusive)
COc1ccc(-c2nc3cnc(OC)nc3n(C3CC3)c2=O)cc1,AC50,[2],0.0501 µM (inconclusive)
CC(C)(C)NC[C@@H](O)COc1cccc2[nH]c(C#N)cc12,AC50,[4],31.6 µM (inconclusive)
COc1ccccc1-c1nc(NCc2ccccc2)c2ccccc2n1,AC50,[1]; read-out: AC50,25.1 µM (inconclusive)
COc1ccc(NS(=O)(=O)c2cccc(C(=O)NC3CCN(Cc4ccccc4)CC3)c2)cc1,EC50,[8],0.318 µM (active)
same,EC50,[9],> 30 µM (not active)
CCOC(=O)c1c(NC(=O)Nc2ccccc2)sc(C)c1C,AC50,[2],25.1 µM (inconclusive)
CN(C)CCCNC(=O)CCc1nc(O)c2ccccc2n1,AC50,[1]; read-out: AC50,7.08 µM (inconclusive)
same,AC50,[3],1 µM (inconclusive)
CCn1c(C)nc2cc(C(=O)NNS(=O)(=O)c3ccccc3F)ccc21,AC50,[3],20 µM (inconclusive)
CCCc1nnc(NC(=O)C(CC)OC(=O)c2cc(C)nc3ccccc23)s1 (stereo unspecified),AC50,[1]; read-out: AC50,15.8 µM (inconclusive)
same,AC50,[4],15.8 µM (inconclusive)
Cc1ccc2c(c1)-c1c(cnn1CC(=O)O)CO2,AC50,[3],11.2 µM (inconclusive)
same,AC50,[4],0.794 µM (inconclusive)
COc1cccc(-c2sc3ccc(OC)cc3c2-c2ccc(O)cc2)c1,AC50,[7],2.67 µM (active)
COc1cc(OC)cc(-c2sc3ccc(OC)cc3c2C#CCCO)c1,AC50,[7],4 µM (active)
Cc1cccc(OC(=O)CN2C(=O)C3C4CCC(C4)C3C2=O)c1C (stereo unspecified),AC50,[3],2 µM (inconclusive)
Cc1ccc(C2C(=O)N(C3CCCC3)CC(=O)N2CC2COc3ccccc3O2)cc1 (stereo unspecified),AC50,[4],39.8 µM (inconclusive)
COC(=O)N1CC(=O)N(OC)C1c1ccc(Cl)cc1Cl (stereo unspecified),AC50,[3],0.316 µM (inconclusive)
COC(=O)[C@@]1(Cc2ccccc2)[C@H]2c3cc(C(=O)N4CCCC4)n(CCO)c3C[C@H]2CN1C(=O)c1ccccc1,AC50,[1]; read-out: AC50,0.00794 µM (inconclusive)
Cc1cc(C)cc(Oc2nn[nH]n2)c1,AC50,[3],7.08 µM (inconclusive)
CN(C)CCCN1c2ccccc2Sc2cnccc21,AC50,[4],0.501 µM (inconclusive)
COc1ccc(C)cc1NC(=O)c1ccc([N+](=O)[O-])cc1[N+](=O)[O-],EC50,[8],1.18 µM (active)
same,EC50,[9],> 60 µM (not active)
Cc1cc(C)n(C(=O)c2cc3c(s2)CCCC3)n1,AC50,[1]; read-out: AC50,2.24 µM (inconclusive)
same,AC50,[2],39.8 µM (inconclusive)
COc1ccc(C(CCN)Cc2ccccc2)cc1 (stereo unspecified),EC50,[9],> 30 µM (not active)
N#CCCn1c(=O)cnc2cnc(N3CCOCC3)nc21,AC50,[1],inconclusive
COc1ccc(-n2c(=O)c(CCc3ccccc3)nc3cnc(N(C)C)nc32)cc1,AC50,[2],3.16 µM (inconclusive)
same,AC50,[4],3.16 µM (inconclusive)
CCOC(=O)c1[nH]c(C)c(C)c1C,AC50,[1]; read-out: AC50,17.8 µM (inconclusive)
same,AC50,[3],1.12 µM (inconclusive)
CCCCCCCCCCCCN1[C@@H](CC(C)=O)c2cc(F)ccc2S1(=O)=O,AC50,[7],5.3 µM (active)
Cc1cc(NC(=O)CCC(=O)N(CC2CCCO2)C(C(=O)NC2CCCC2)c2cccnc2)no1 (stereo unspecified),AC50,[3],17.8 µM (inconclusive)
same,AC50,[2],1.41 µM (inconclusive)
COC(=O)c1c(NC(=O)Cn2cc([N+](=O)[O-])cn2)sc2c1CCC2,AC50,[1]; read-out: AC50,3.16 µM (inconclusive)
same,AC50,[3],3.55 µM (inconclusive)
CCn1c2ccccc2c2cc(/N=C3/SC(CC(=O)Nc4ccccc4OC)C(=O)N3C)ccc21 (stereo unspecified),AC50,[2],2.82 µM (inconclusive)
N[C@@H](Cn1oc(=O)[nH]c1=O)C(=O)O [QUISQUALATE],AC50,[2],1 µM (inconclusive)
same,AC50,[4],39.8 µM (inconclusive)
